According to BigSolDB 2.1:

Q: For `Clc1ccc(COC(Cn2ccnc2)c2ccc(Cl)cc2Cl)cc1.O=[N+]([O-])O` (centres undefined), which solubility (mole fraction) (in 1,4-dioxane, 288.15 K) is on record?
A: 0.000262

Q: And the solubility (mole fraction) (in 1,4-dioxane, 293.15 K)?
A: 0.000317

Q: What about the solubility (mole fraction) (in 1,4-dioxane, 298.15 K) of the same compound?
A: 0.000393

Q: What about the solubility (mole fraction) (in 1,4-dioxane, 303.15 K) of the same compound?
A: 0.000482

Q: And the solubility (mole fraction) (in 1,4-dioxane, 308.15 K)?
A: 0.000596

Q: What about the solubility (mole fraction) (in 1,4-dioxane, 313.15 K) of the same compound?
A: 0.000729

Q: And the solubility (mole fraction) (in 1,4-dioxane, 318.15 K)?
A: 0.000897

Q: What about the solubility (mole fraction) (in ethanol, 278.15 K) of the same compound?
A: 0.000526

Q: What about the solubility (mole fraction) (in ethanol, 283.15 K) of the same compound?
A: 0.000656

Q: And the solubility (mole fraction) (in ethanol, 288.15 K)?
A: 0.000832

Q: What about the solubility (mole fraction) (in ethanol, 293.15 K) of the same compound?
A: 0.00102

Q: What about the solubility (mole fraction) (in ethanol, 298.15 K) of the same compound?
A: 0.00125

Q: What about the solubility (mole fraction) (in ethanol, 303.15 K) of the same compound?
A: 0.00153

Q: And the solubility (mole fraction) (in ethanol, 308.15 K)?
A: 0.00189

Q: What about the solubility (mole fraction) (in ethanol, 313.15 K) of the same compound?
A: 0.00228

Q: What about the solubility (mole fraction) (in ethanol, 318.15 K) of the same compound?
A: 0.00275

Q: And the solubility (mole fraction) (in methanol, 278.15 K)?
A: 0.0015

Q: And the solubility (mole fraction) (in methanol, 283.15 K)?
A: 0.00181

Q: And the solubility (mole fraction) (in methanol, 288.15 K)?
A: 0.00221

Q: And the solubility (mole fraction) (in methanol, 293.15 K)?
A: 0.00266

Q: And the solubility (mole fraction) (in methanol, 298.15 K)?
A: 0.00328

Q: And the solubility (mole fraction) (in methanol, 303.15 K)?
A: 0.00397

Q: What about the solubility (mole fraction) (in methanol, 308.15 K) of the same compound?
A: 0.00479

Q: What about the solubility (mole fraction) (in methanol, 313.15 K) of the same compound?
A: 0.00577

Q: What about the solubility (mole fraction) (in methanol, 318.15 K) of the same compound?
A: 0.00687

Q: What about the solubility (mole fraction) (in water, 278.15 K) of the same compound?
A: 1.67e-05

Q: What about the solubility (mole fraction) (in water, 283.15 K) of the same compound?
A: 2.05e-05

Q: What about the solubility (mole fraction) (in water, 288.15 K) of the same compound?
A: 2.47e-05

Q: What about the solubility (mole fraction) (in water, 293.15 K) of the same compound?
A: 2.93e-05

Q: And the solubility (mole fraction) (in water, 298.15 K)?
A: 3.44e-05

Q: What about the solubility (mole fraction) (in water, 303.15 K) of the same compound?
A: 3.98e-05

Q: And the solubility (mole fraction) (in water, 308.15 K)?
A: 4.56e-05

Q: And the solubility (mole fraction) (in water, 313.15 K)?
A: 5.16e-05

Q: What about the solubility (mole fraction) (in water, 318.15 K) of the same compound?
A: 5.78e-05
